Tested on: MV-4-11 cells
Test: Gene expression microarray analysis (Affymetrix PrimeView) and GSEA
Type: cell-based, human
Parameters: RFU PODN (11730768_x_at) / Fold change /veh PODN (11730768_x_at) / RFU LINC00158 (11744669_a_at) / Fold change /veh LINC00158 (11744669_a_at) / RFU DUSP10 (11751237_a_at) / Fold change /veh DUSP10 (11751237_a_at) / RFU ID3 (11757404_x_at) / Fold change /veh ID3 (11757404_x_at) / RFU PLEKHG5 (11737974_s_at) / Fold change /veh PLEKHG5 (11737974_s_at) / RFU LRRC4B (11730491_at) / Fold change /veh LRRC4B (11730491_at) / RFU GIMAP4 (11747438_a_at) / Fold change /veh GIMAP4 (11747438_a_at) / RFU KRT8 (11758183_x_at) / Fold change /veh KRT8 (11758183_x_at) / RFU CNN1 (11734310_a_at) / Fold change /veh CNN1 (11734310_a_at) / RFU VPS37D (11726825_at) / Fold change /veh VPS37D (11726825_at) / RFU C10orf10 (11716522_x_at) / Fold change /veh C10orf10 (11716522_x_at) / RFU KIR2DL2 /// KIR2DL4 /// KIR2DL5A /// KIR2DL5B /// KIR2DS1 /// KIR2DS2 /// KIR2DS3 /// KIR2DS4 /// KIR3DL3 /// KIR3DL3 /// KIR3DS1 (11738374_at) / Fold change /veh KIR2DL2 /// KIR2DL4 /// KIR2DL5A /// KIR2DL5B /// KIR2DS1 /// KIR2DS2 /// KIR2DS3 /// KIR2DS4 /// KIR3DL3 /// KIR3DL3 /// KIR3DS1 (11738374_at) / RFU C1QL1 (11718748_at) / Fold change /veh C1QL1 (11718748_at) / RFU TMPRSS4 (11747572_a_at) / Fold change /veh TMPRSS4 (11747572_a_at) / RFU HAMP (11756126_x_at) / Fold change /veh HAMP (11756126_x_at) / RFU RNFT2 (11725882_a_at) / Fold change /veh RNFT2 (11725882_a_at) / RFU NR4A2 (11747474_a_at) / Fold change /veh NR4A2 (11747474_a_at) / RFU ABCC12 (11746883_a_at) / Fold change /veh ABCC12 (11746883_a_at) / RFU TMEM136 (11760407_x_at) / Fold change /veh TMEM136 (11760407_x_at) / RFU CLDN22 /// WWC2 (11732394_at) / Fold change /veh CLDN22 /// WWC2 (11732394_at) / RFU HLA-DPB1 (11760878_x_at) / Fold change /veh HLA-DPB1 (11760878_x_at) / RFU SPINT1 (11716480_a_at) / Fold change /veh SPINT1 (11716480_a_at) / RFU GAP43 (11754022_s_at) / Fold change /veh GAP43 (11754022_s_at) / RFU A4GNT (11735810_at) / Fold change /veh A4GNT (11735810_at) / RFU PRB3 (11715151_x_at) / Fold change /veh PRB3 (11715151_x_at) / RFU TUBB4B (11761932_at) / Fold change /veh TUBB4B (11761932_at) / RFU CAPN14 (11732068_a_at) / Fold change /veh CAPN14 (11732068_a_at) / RFU TMCC2 (11721928_a_at) / Fold change /veh TMCC2 (11721928_a_at) / RFU IRGQ (11745062_a_at) / Fold change /veh IRGQ (11745062_a_at) / RFU FAM174B (11720279_a_at) / Fold change /veh FAM174B (11720279_a_at) / RFU TMPRSS4 (11748680_a_at) / Fold change /veh TMPRSS4 (11748680_a_at) / RFU FAM212B (11763350_a_at) / Fold change /veh FAM212B (11763350_a_at) / RFU PLEKHG5 (11743358_a_at) / Fold change /veh PLEKHG5 (11743358_a_at) / RFU ZSCAN30 (11745921_a_at) / Fold change /veh ZSCAN30 (11745921_a_at) / RFU CMKLR1 (11741424_a_at) / Fold change /veh CMKLR1 (11741424_a_at) / RFU LOC101060620 /// MAPK8IP1 (11723275_at) / Fold change /veh LOC101060620 /// MAPK8IP1 (11723275_at) / RFU SPTSSB (11747773_x_at) / Fold change /veh SPTSSB (11747773_x_at) / RFU PRSS12 (11739890_at) / Fold change /veh PRSS12 (11739890_at) / RFU BIN1 (11741810_x_at) / Fold change /veh BIN1 (11741810_x_at) / RFU WNT11 (11732464_a_at) / Fold change /veh WNT11 (11732464_a_at) / RFU C10orf10 (11716521_a_at) / Fold change /veh C10orf10 (11716521_a_at) / RFU C5orf56 (11738089_at) / Fold change /veh C5orf56 (11738089_at) / RFU CYB561 (11721691_x_at) / Fold change /veh CYB561 (11721691_x_at) / RFU ANKRD19P (11752326_a_at) / Fold change /veh ANKRD19P (11752326_a_at) / RFU OR2T12 /// OR2T33 /// OR2T8 (11738714_s_at) / Fold change /veh OR2T12 /// OR2T33 /// OR2T8 (11738714_s_at) / RFU VCAN (11748164_a_at) / Fold change /veh VCAN (11748164_a_at) / RFU JSRP1 (11732532_at) / Fold change /veh JSRP1 (11732532_at) / RFU KRTAP10-11 (11738290_x_at) / Fold change /veh KRTAP10-11 (11738290_x_at) / RFU MYO3A (11730013_a_at) / Fold change /veh MYO3A (11730013_a_at) / RFU EBF3 (11725865_a_at) / Fold change /veh EBF3 (11725865_a_at) / RFU CAMK2N1 (11719241_x_at) / Fold change /veh CAMK2N1 (11719241_x_at) / RFU C5orf56 (11738088_a_at) / Fold change /veh C5orf56 (11738088_a_at) / RFU OLFML3 (11715873_a_at) / Fold change /veh OLFML3 (11715873_a_at) / RFU LOC100653217 /// NTM (11731650_a_at) / Fold change /veh LOC100653217 /// NTM (11731650_a_at) / RFU MAPK11 (11762145_a_at) / Fold change /veh MAPK11 (11762145_a_at) / RFU FIZ1 (11724087_x_at) / Fold change /veh FIZ1 (11724087_x_at) / RFU OASL (11726364_x_at) / Fold change /veh OASL (11726364_x_at) / RFU SOX15 (11748057_x_at) / Fold change /veh SOX15 (11748057_x_at) / RFU CD79A (11719716_a_at) / Fold change /veh CD79A (11719716_a_at) / RFU HIST1H1D (11736915_at) / Fold change /veh HIST1H1D (11736915_at) / RFU CASKIN2 (11723855_a_at) / Fold change /veh CASKIN2 (11723855_a_at) / RFU LOC730098 (11760151_x_at) / Fold change /veh LOC730098 (11760151_x_at) / RFU OR4N2 (11742367_at) / Fold change /veh OR4N2 (11742367_at) / RFU PRRT2 (11749266_a_at) / Fold change /veh PRRT2 (11749266_a_at) / RFU SNX32 (11753110_a_at) / Fold change /veh SNX32 (11753110_a_at) / RFU CDHR5 (11726645_a_at) / Fold change /veh CDHR5 (11726645_a_at) / RFU RCAN1 (11760418_a_at) / Fold change /veh RCAN1 (11760418_a_at) / RFU FAM167A (11723789_a_at) / Fold change /veh FAM167A (11723789_a_at) / RFU FAM26E (11764081_at) / Fold change /veh FAM26E (11764081_at) / RFU ISYNA1 (11749810_s_at) / Fold change /veh ISYNA1 (11749810_s_at) / RFU ACY1 (11761880_at) / Fold change /veh ACY1 (11761880_at) / RFU 11764098_at / Fold change /veh 11764098_at / RFU SAMD14 (11745864_x_at) / Fold change /veh SAMD14 (11745864_x_at) / RFU NPB (11741838_a_at) / Fold change /veh NPB (11741838_a_at) / RFU TMPRSS6 (11731388_a_at) / Fold change /veh TMPRSS6 (11731388_a_at) / RFU KRTAP10-2 (11738614_at) / Fold change /veh KRTAP10-2 (11738614_at) / RFU ARHGAP8 /// PRR5-ARHGAP8 (11727945_x_at) / Fold change /veh ARHGAP8 /// PRR5-ARHGAP8 (11727945_x_at) / RFU KRTAP5-7 /// NADSYN1 (11734609_at) / Fold change /veh KRTAP5-7 /// NADSYN1 (11734609_at) / RFU RASL12 (11751679_a_at) / Fold change /veh RASL12 (11751679_a_at) / RFU CDKN2B (11736163_a_at) / Fold change /veh CDKN2B (11736163_a_at) / RFU PRF1 (11729649_at) / Fold change /veh PRF1 (11729649_at) / RFU, ZNF638 /// ZNF638-IT1 / Fold change vs veh, ZNF638 /// ZNF638-IT1 / RFU, PANK3 / Fold change vs veh, PANK3 / RFU, SH3YL1 / Fold change vs veh, SH3YL1 / RFU, ZEB2 / Fold change vs veh, ZEB2 / RFU, NRIP1 / Fold change vs veh, NRIP1 / RFU, PTTG1IP / Fold change vs veh, PTTG1IP / RFU, CAPN2 / Fold change vs veh, CAPN2 / RFU, MED14 / Fold change vs veh, MED14 / RFU, SNORA58 / Fold change vs veh, SNORA58 / RFU, C1orf63 / Fold change vs veh, C1orf63 / RFU, LRRFIP1 / Fold change vs veh, LRRFIP1 / RFU, NDUFAF7 / Fold change vs veh, NDUFAF7 / RFU, SLC12A2 / Fold change vs veh, SLC12A2 / RFU, IBTK / Fold change vs veh, IBTK / RFU, ESF1 / Fold change vs veh, ESF1 / Fold change vs veh, TMEM50B / RFU, TAOK1 / Fold change vs veh, TAOK1 / RFU, ACBD3 / Fold change vs veh, ACBD3 / RFU, TMA16 / Fold change vs veh, TMA16 / RFU, RWDD3 / Fold change vs veh, RWDD3 / RFU, BCAT1 / Fold change vs veh, BCAT1 / RFU, EDEM3 / Fold change vs veh, EDEM3 / RFU, TMEM33 / Fold change vs veh, TMEM33 / RFU, WDR75 / Fold change vs veh, WDR75 / RFU, AHCTF1 / Fold change vs veh, AHCTF1 / RFU, TFRC / Fold change vs veh, TFRC / RFU, ZDHHC17 / Fold change vs veh, ZDHHC17 / RFU, NOM1 / Fold change vs veh, NOM1 / RFU, ARL8B / Fold change vs veh, ARL8B / RFU, ZBTB11 / Fold change vs veh, ZBTB11 / RFU, TAMM41 / Fold change vs veh, TAMM41 / RFU, KIAA1704 /// LOC100996395 / Fold change vs veh, KIAA1704 /// LOC100996395 / RFU, ING1 / Fold change vs veh, ING1 / RFU, TRMT61B / Fold change vs veh, TRMT61B / RFU, FUBP3 / Fold change vs veh, FUBP3 / RFU, TP53 / Fold change vs veh, TP53 / RFU, TNKS2 / Fold change vs veh, TNKS2 / RFU, ZFP14 / Fold change vs veh, ZFP14 / RFU, ACTR2 / Fold change vs veh, ACTR2 / RFU, PPP3R1 / Fold change vs veh, PPP3R1 / RFU, PIK3R1 / Fold change vs veh, PIK3R1 / RFU, HNRNPA1 / Fold change vs veh, HNRNPA1 / RFU, RNF170 / Fold change vs veh, RNF170 / RFU, ZNF28 / Fold change vs veh, ZNF28 / RFU, RNGTT / Fold change vs veh, RNGTT / RFU, OGT / Fold change vs veh, OGT / RFU, BRD1 / Fold change vs veh, BRD1 / RFU, MARS / Fold change vs veh, MARS / RFU, ZNF655 / Fold change vs veh, ZNF655 / RFU, FAHD1 / Fold change vs veh, FAHD1 / RFU, BDP1 / Fold change vs veh, BDP1 / RFU, LRRCC1 / Fold change vs veh, LRRCC1 / RFU, ARID1A / Fold change vs veh, ARID1A / RFU, ZNF146 / Fold change vs veh, ZNF146 / RFU, ZNF330 / Fold change vs veh, ZNF330 / RFU, GPN3 / Fold change vs veh, GPN3 / RFU, C9orf123 / Fold change vs veh, C9orf123 / RFU, N4BP2L2 / Fold change vs veh, N4BP2L2 / RFU, ARFIP1 / Fold change vs veh, ARFIP1 / RFU, FAM179B / Fold change vs veh, FAM179B / RFU, BCL10 / Fold change vs veh, BCL10 / RFU, UHRF1BP1L / Fold change vs veh, UHRF1BP1L / RFU, BET1 / Fold change vs veh, BET1 / RFU, CNOT2 / Fold change vs veh, CNOT2 / RFU, ZNF268 / Fold change vs veh, ZNF268 / Fold change vs veh, ZNF507 / RFU, DGCR2 / Fold change vs veh, DGCR2 / RFU, WDSUB1 / Fold change vs veh, WDSUB1 / Fold change vs veh, HSP90B1 /// MIR3652 / RFU, ADSS / Fold change vs veh, ADSS / RFU, GK / Fold change vs veh, GK / RFU, ZNF148 / Fold change vs veh, ZNF148 / RFU, TAF9 / Fold change vs veh, TAF9 / RFU, SLC1A5 / Fold change vs veh, SLC1A5 / RFU, SLMO2 / Fold change vs veh, SLMO2 / RFU, ABCC4 / Fold change vs veh, ABCC4 / RFU, LOC101060439 /// RAP1B / Fold change vs veh, LOC101060439 /// RAP1B / RFU, RFX7 / Fold change vs veh, RFX7 / RFU, GTPBP10 / Fold change vs veh, GTPBP10 / RFU, CNEP1R1 / Fold change vs veh, CNEP1R1 / RFU, BIVM-ERCC5 /// ERCC5 / Fold change vs veh, BIVM-ERCC5 /// ERCC5 / RFU, ILF3 / Fold change vs veh, ILF3 / RFU 11762660_at / Fold change /veh 11762660_at / RFU VCAN (11757783_s_at) / Fold change /veh VCAN (11757783_s_at) / RFU DDX43 (11728927_at) / Fold change /veh DDX43 (11728927_at) / RFU KRT8 (11758188_x_at) / Fold change /veh KRT8 (11758188_x_at) / RFU NKD1 (11759106_at) / Fold change /veh NKD1 (11759106_at) / RFU SRD5A1 (11742802_a_at) / Fold change /veh SRD5A1 (11742802_a_at) / RFU TPSAB1 /// TPSB2 (11721975_s_at) / Fold change /veh TPSAB1 /// TPSB2 (11721975_s_at) / RFU GSTM3 (11746129_a_at) / Fold change /veh GSTM3 (11746129_a_at) / RFU IL23R (11737362_x_at) / Fold change /veh IL23R (11737362_x_at) / RFU TMEM51 (11727254_a_at) / Fold change /veh TMEM51 (11727254_a_at) / RFU PIWIL2 (11732686_x_at) / Fold change /veh PIWIL2 (11732686_x_at) / RFU ORM1 (11744905_x_at) / Fold change /veh ORM1 (11744905_x_at) / RFU CCDC152 (11743942_at) / Fold change /veh CCDC152 (11743942_at) / RFU ECM1 (11717891_a_at) / Fold change /veh ECM1 (11717891_a_at) / RFU IL23R (11748794_a_at) / Fold change /veh IL23R (11748794_a_at) / RFU TNFAIP8L3 (11732012_x_at) / Fold change /veh TNFAIP8L3 (11732012_x_at) / RFU MBOAT4 (11741988_at) / Fold change /veh MBOAT4 (11741988_at) / RFU 11764193_at / Fold change /veh 11764193_at / RFU TMEM53 (11763286_at) / Fold change /veh TMEM53 (11763286_at) / RFU MAGEB2 (11727129_at) / Fold change /veh MAGEB2 (11727129_at) / RFU TMEM200A (11744735_a_at) / Fold change /veh TMEM200A (11744735_a_at) / RFU CCDC152 (11751479_a_at) / Fold change /veh CCDC152 (11751479_a_at) / RFU FAM211A (11726209_a_at) / Fold change /veh FAM211A (11726209_a_at) / RFU RGS16 (11746705_a_at) / Fold change /veh RGS16 (11746705_a_at) / RFU VCAN (11755009_s_at) / Fold change /veh VCAN (11755009_s_at) / RFU RHOB (11743442_s_at) / Fold change /veh RHOB (11743442_s_at) / RFU RGS16 (11720943_a_at) / Fold change /veh RGS16 (11720943_a_at) / RFU RGS16 (11720944_at) / Fold change /veh RGS16 (11720944_at) / RFU, VPS4B / Fold change vs veh, VPS4B / RFU, CREB1 / Fold change vs veh, CREB1 / RFU, DNAJC13 / Fold change vs veh, DNAJC13 / RFU, GNAQ / Fold change vs veh, GNAQ / RFU, CDK5R1 / Fold change vs veh, CDK5R1 / RFU, ZRANB3 / Fold change vs veh, ZRANB3 / RFU, CUL4A / Fold change vs veh, CUL4A / RFU, CCNY / Fold change vs veh, CCNY / RFU, UFL1 / Fold change vs veh, UFL1 / RFU, COG3 / Fold change vs veh, COG3 / RFU, DIAPH2 / Fold change vs veh, DIAPH2 / RFU, SKA2 / Fold change vs veh, SKA2 / RFU, AFF3 / Fold change vs veh, AFF3 / RFU, LMF1 / Fold change vs veh, LMF1 / RFU, IPO11 / Fold change vs veh, IPO11 / RFU, DFFB / Fold change vs veh, DFFB / RFU, FOXP1 / Fold change vs veh, FOXP1 / RFU, CARD8 / Fold change vs veh, CARD8 / RFU, STRN3 / Fold change vs veh, STRN3 / RFU, ADK / Fold change vs veh, ADK / RFU, RASSF2 / Fold change vs veh, RASSF2 / RFU, WIPF1 / Fold change vs veh, WIPF1 / RFU, LARP1B / Fold change vs veh, LARP1B / RFU, RASA1 / Fold change vs veh, RASA1 / RFU, RB1 / Fold change vs veh, RB1 / RFU, PPFIA1 / Fold change vs veh, PPFIA1 / RFU, MAT2A / Fold change vs veh, MAT2A / RFU, CCT5 / Fold change vs veh, CCT5 / RFU, WDR92 / Fold change vs veh, WDR92 / RFU, CUX1 / Fold change vs veh, CUX1 / RFU, TTC7A / Fold change vs veh, TTC7A / RFU, TMEM135 / Fold change vs veh, TMEM135 / RFU, DEPTOR / Fold change vs veh, DEPTOR / RFU, CPM / Fold change vs veh, CPM / RFU, DNAJB6 / Fold change vs veh, DNAJB6 / RFU, CACNA2D3 / Fold change vs veh, CACNA2D3 / RFU, DTX4 / Fold change vs veh, DTX4 / RFU, TFCP2 / Fold change vs veh, TFCP2 / RFU, GMCL1 /// GMCL1P1 / Fold change vs veh, GMCL1 /// GMCL1P1 / RFU, AEBP2 / Fold change vs veh, AEBP2 / RFU, SNHG1 /// SNORD22 /// SNORD25 /// SNORD26 /// SNORD27 /// SNORD28 /// SNORD29 /// SNORD31 / Fold change vs veh, SNHG1 /// SNORD22 /// SNORD25 /// SNORD26 /// SNORD27 /// SNORD28 /// SNORD29 /// SNORD31 / Fold change (Aza/veh), C12orf56 (ProbeSet 11735607_a_at) / Fold change (ACY-1035/veh), C12orf56 (ProbeSet 11735607_a_at) / Fold change (Aza/veh), FGFR1OP (ProbeSet 11751329_s_at) / Fold change (ACY-1035/veh), FGFR1OP (ProbeSet 11751329_s_at) / Fold change (Aza/veh), VPS36 (ProbeSet 11739960_a_at) / Fold change (ACY-1035/veh), VPS36 (ProbeSet 11739960_a_at) / RFU SYPL1 (11715823_x_at) / Fold change /veh SYPL1 (11715823_x_at) / RFU IGFBP7 (11715501_s_at) / Fold change /veh IGFBP7 (11715501_s_at) / RFU REEP3 (11722064_at) / Fold change /veh REEP3 (11722064_at) / RFU IGLL1 (11728026_x_at) / Fold change /veh IGLL1 (11728026_x_at): dose or concentration left out as unconfirmed
Conditions: MV-4-11 cells, 48 hours

Nc1ccc(-c2cccs2)cc1NC(=O)c1ccc2c(c1)cc(C1CC1)n2CCN1CCOCC1 [ACY-1035]
RFU CASKIN2 (11723855_a_at): 29.44 RFU

From PMC5218480 (PLoS ONE, 2017)
